In publication PMC9293779, “Elucidation of binding preferences of YEATS domains to site-specific acetylated nucleosome core particles” (The Journal of Biological Chemistry, 2022):

Key:
[1] = tested on: HDAC6; conditions: 1 μM TSA, preincubated 37 °C 1 h, NCP monoacetylated at H4 K5, K8, K12 or K16, 16 h, dot blot
Method: First, we examined whether the reconstituted NCP with Kac is functional as a substrate for lysine deacetylases (KDACs) in vitro. We tested activity of histone deacetylase 6 (HDAC6) toward NCP-containing H4 with K5ac, K8ac, K12ac, or K16ac. […] Subsequently, we examined whether a HDAC-specific inhibitor, trichostatin A (TSA), inhibits deacetylation of Kac-containing NCPs.
The NCPs for deacetylation assays were reconstituted using unmodified H2B. In each deacetylation reaction, 200 ng of the Kac-containing NCP was incubated with 50, 100, 200, or 400 ng of HDAC6 (SignalChem; cat. no. H88-30 G) in 20 μl at 37 °C for 16 h. In the inhibitor assays, TSA was added to the reaction mixture not containing NCP to a final concentration of 1 μM and preincubated at 37 °C for 1 h; NCP monoacetylated either at K5, K8, K12, or K16 of H4 was then added. After the reactions, samples were spotted on a nitrocellulose membrane (BioTrace NT Nitrocellulose Transfer Membrane, 0.2 μm, Pall Corporation, cat. no. 66485) and immunoblotted using H4-specific antibodies, each recognizing acetylation at K5, K8, K12, or K16.

[2] = biological target: YEATS2-YEATS; design: method as in 2 sources, one per row (each row's own in cited_ref): ref 50 = [50]; PMID 27103431; doi:10.1038/cr.2016.49; 50 Zhao D. Guan H. Zhao S. Mi W. Wen H. Li Y. YEATS2 is a selective histone crotonylation reader Cell Res. 26 2016 629 632 27103431 10.1038/cr.2016.49 PMC4856769 ||| ref 31 = [31]; PMID 29057918; doi:10.1038/s41467-017-01173-4; 31 Mi W. Guan H. Lyu J. Zhao D. Xi Y. Jiang S. YEATS2 links histone acetylation to tumorigenesis of non-small cell lung cancer Nat. Commun. 8 2017 1088 29057918 10.1038/s41467-017-01173-4 PMC5651844; conditions: cited from earlier work
[3] = biological target: T1, AF9-YEATS (Homo sapiens, UniProt P42568); experiment: Peptide array-based binding assay, AF9-YEATS; conditions: 10 μM YEATS domain, 4 °C overnight, anti-GST/HRP chemiluminescence
T1 construct: For ITC experiments, the cDNAs encoding AF9-YEATS (residues 1–138) and YEATS2-YEATS (200–349) were inserted into the same vector; polyhistidine tag (N); GST (N); made in house
T1 sequence (P42568 1-138): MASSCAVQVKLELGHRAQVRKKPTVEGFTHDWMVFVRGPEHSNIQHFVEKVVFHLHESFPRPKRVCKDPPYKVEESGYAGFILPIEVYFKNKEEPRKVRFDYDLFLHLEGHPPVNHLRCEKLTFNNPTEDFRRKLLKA
Method: (§1) For the assay using the MODified Histone Peptide Array, the same cDNA sequences encoding human YEATS domains were amplified by PCR and subcloned into a pCR2.1 vector with a GST-encoding sequence inserted after an N-terminal polyhistidine tag. For microscale thermophoresis measurements, a similar construct but without GST was used. Site-directed mutagenesis of AF9-YEATS (residues 1–138) was conducted by PCR using the DpnI restriction enzyme and the following primer sets: 5′-CCTTCACGCATCCTTTCCTCGTCCTAAAC-3′ (forward) and 5′-GGAAAGGATGCGTGAAGGTGAAACACCAC-3′ (reverse) for E57A and 5′-CGACTATGACCTGTTTCTGCATCTCG-3′ (forward) and 5′-GCAGAAACAGTGCATAGTCGAAGCGAAC-3′ (reverse) for D103A. The introduced mutations were verified by DNA sequencing. For X-ray structural analysis, the cDNAs encoding AF9-YEATS (residues 1–138) and YEATS2-YEATS (202–338) were amplified by PCR and subcloned into the pCR2.1 vector encoding GST and the polyhistidine tag. […]
(§2) Assays were performed using the MODified Histone Peptide Array (Active Motif) following the manufacturer’s protocol. […] Protein binding was detected by Chemi-Lumi One Super (Nacalai Tesque). Signal intensities were quantified by using the Protein Array Analyzer for ImageJ (written by Gilles Carpentier, 2010. The macro is available online: http://rsb.info.nih.gov/ij/macros/toolsets/Protein Array Analyzer.txt).

[4] = tested on: ENL-YEATS; experiment: Peptide array-based binding assay, ENL-YEATS; design: species or system human; conditions: 10 μM YEATS domain, 4 °C overnight, anti-GST/HRP chemiluminescence
Method: as §1, §2

[5] = tested on: GAS41-YEATS; experiment: Peptide array-based binding assay, GAS41-YEATS; design: species or system human; conditions: 10 μM YEATS domain, 4 °C overnight, anti-GST/HRP chemiluminescence
Method: as §1, §2

**Q.** For trichostatin A [TSA], which “inhibition of deacetylation by HDAC6” value [1] is on record?
**A.** The value was “inhibited deacetylation of all four Kac residues by HDAC6”.

**Q.** With “K27-crotonylated H3 (1–34) peptide: K27-crotonylated H3 (1–34) peptide of ref 50” as the substance, how does the Kd [2] read?
**A.** Its Kd is 31.7 µM.

**Q.** What does the source list for “H4 (1–19) tail peptide diacetylated at K5/K8: peptide on MODified Histone Peptide Array (SGRGKGGKGLGKGGAKRHR; K5 and K8 acetylation; UniProt P62805 2-20, looked up, fragment)”?
**A.** binding on MODified Histone Peptide Array [3]: bound; binding on MODified Histone Peptide Array [4]: bound; binding on MODified Histone Peptide Array [5]: bound
